Here are results for four compounds from patent US20080096807A1, “Cyclic vasoactive intestinal peptide receptor-2 agonists” (priority 2006, published 2008).

The term EC50 denotes the concentration at which the effect is half-maximal.

Bridge positions count the residues as written; N and C are the ends. Square brackets hold non-standard residues; d marks the D form. Peptide text beside a SMILES is read from it. ξ: configuration not given here. Thr(3ξ) = CC(O)[C@H](N)C(=O)O; αMeV = CC(C)[C@](C)(N)C(=O)O; Nle = CCCC[C@H](N)C(=O)O

In data set [1] the target is T1, human neutrophil elastase (Homo sapiens, UniProt P08246).
T1 sequence (P08246 30-247 limits assumed): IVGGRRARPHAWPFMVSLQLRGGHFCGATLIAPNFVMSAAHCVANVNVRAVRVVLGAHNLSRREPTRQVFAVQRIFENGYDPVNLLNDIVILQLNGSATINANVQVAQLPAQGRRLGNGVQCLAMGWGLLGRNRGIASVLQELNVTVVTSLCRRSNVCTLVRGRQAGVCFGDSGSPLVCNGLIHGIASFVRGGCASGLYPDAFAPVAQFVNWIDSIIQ
The experiment in a line: Peptide stability to neutrophil elastase (RP HPLC ESI MS). The conditions noted are these: halftime with human neutrophil elastase 1 to 2 μg/mL in PBS, ambient temperature, normalized to halftime of the reference standard.

Another data set deals with T2, VPAC2 receptor (Homo sapiens, UniProt P41587).
T2 construct: The human T-lymphoid cell line Sup-Ti, which expresses the VPAC2 receptor; host or cells: Sup-T1 (Sup-Ti [sic]) human T-lymphoid cell line
T2 sequence (P41587 24-438): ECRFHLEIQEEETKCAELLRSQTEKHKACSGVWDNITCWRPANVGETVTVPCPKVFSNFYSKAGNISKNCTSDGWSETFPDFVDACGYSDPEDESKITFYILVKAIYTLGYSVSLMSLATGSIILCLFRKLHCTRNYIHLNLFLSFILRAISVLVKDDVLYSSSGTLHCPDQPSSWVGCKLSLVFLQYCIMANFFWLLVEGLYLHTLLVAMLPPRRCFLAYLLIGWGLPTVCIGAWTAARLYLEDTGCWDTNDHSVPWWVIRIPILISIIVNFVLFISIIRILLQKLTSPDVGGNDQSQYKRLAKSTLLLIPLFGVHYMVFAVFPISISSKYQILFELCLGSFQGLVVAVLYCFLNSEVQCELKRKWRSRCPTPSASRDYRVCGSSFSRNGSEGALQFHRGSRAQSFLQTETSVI
As to the kind of experiment: Sup-T1 cAMP agonist assay. In kind it is cell-based. The conditions noted are these: human T-lymphoid cell line Sup-T1 expressing VPAC2 receptor; cAMP EIA; 5 min at room temperature; read-out: Sup-T1 cAMP EC50. In a few lines: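 Sup-T1 human T-lymphoid cells with endogenous VPAC2 (RPMI 1640, 25 mM HEPES, 10% FBS) were plated at 4×10^4 cells/well and exposed to compound for 5 min at room temperature. After lysis, cAMP was measured by enzyme immunoassay. EC50 came from a sigmoidal fit of 7-concentration dose-response data.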

Data set [2] has as its system LPS-induced lung inflammation in male C57BL/6 mice. As to the kind of experiment: LPS-induced lung inflammation in male C57BL/6 mice (BAL neutrophilia). It counts as in vivo. The conditions noted are these: Dose 0.01%, BAL fluid neutrophilia. The protocol: C57bl/6 mice are pretreated with vehicle or drug prior to an aerosol expose to lipopolysacchride (LPS, 500 μg/ml in sterile saline) for 15-30 minutes. The aerosol is generated by a Pari Ultra neb jet nebulizer, the outlet of which is connected to a small clear plastic chamber [H×W×D, 10.7×25.7×11 cm (4×10×4.5 in)] containing the animals. Bronchoalveolar lavage (BAL) is performed 24 hr later to determine the intensity of cell inflammation. BAL procedure is performed as described below.
Mice are pretreated with vehicle or drug prior to an intranasal administration of lipopolysacchride (0.05-0.3 mg/kg in sterile saline; 50 μl total volume, 25 μl/nostril). Intranasal administration is performed by presenting small droplets of the dosing solution at the nostril using a 25-50 μl eppendorff pipet. BAL is performed 3 to 24 h post LPS challenged as described above to determine the intensity of cell inflammation.
24 h following LPS exposure, animals are anesthetized with pentobarbital (80-100 mg/kg, i.p.), ketamine/xyzaline (80-120 mg/kg/2-4 mg/kg, i.p.) or urethane (1.5-2.4 g/kg, i.p.); and through a small midline neck incision (15-20 mm), the trachea is exposed and cannulated with 20-gauge tubing adapter. Lungs are lavaged with 2×1 ml sterile Hank's balanced salt solution without Ca++ and Mg++(HBSS). Lavage fluid is recovered after 30 sec by gentle aspiration and pooled for each animal. Samples are then centrifuged at 2000 rpm for 10 minutes at 5° C. Supernatant is aspirated, and red blood cells are lysed from the resulting pellet with 0.5 ml distilled water for 30 sec before restoring osmolarity to the remaining cells by the addition of 5 ml of HBSS. Samples are recentrifuged at 2000 rpm for 10 minutes at 5° C. and supernatant aspirated. The resulting pellet is resuspended in 1 ml of HBSS. Total cell number is determined by Trypan Blue (Sigma Chemical, St. Louis, Mo.) exclusion from an aliquot of cell suspension using a hemocytometer or coulter counter. For differential cell counts, an aliquot of the cell suspension is centrifuged in a Cytospin (5 min, 1300 rpm; Shandon Southern Instruments, Sewickley, Pa.) and the slides fixed and stained with a modified Wright's stain (Hema 3 stain kit, Fisher Scientific). Standard morphological criteria is used in classifying at least 300 cells under light microscopy. Data in Table 3 is expressed as BAL cells×10^4/animal for neutrophils and total cells, or percent inhibition of the LPS induced BAL fluid neutrophilia response.

Data set [3] relates to methacholine-induced bronchospasm in mice. The experiment in a line: Methacholine-induced bronchospasm in mice (whole body plethysmography, Penh). It counts as in vivo. The conditions noted are these: balb/c mice; drug by aerosol for 20 minutes before spasmogen challenge; relative to vehicle. The protocol:
Respiratory function is measured in conscious, freely moving mice using whole body plethysmographs (WBP) from BUXCO Electronics, Inc. (Troy, N.Y.). WBP chambers allow animals to move freely within the chamber while respiratory function is measured. Eight chambers are used simultaneously so that eight mice can be measured at the same time. Each WBP chamber is connected to a bias flow regulator to supply a smooth, constant flow of fresh air during testing. A transducer attached to each chamber detects pressure changes that occur as the animal breathes. Pressure signals are amplified by a MAX II Strain Gauge preamplifier and analyzed by the Biosystem XA software supplied with the system (BUXCO Electronics, Inc.). Pressure changes within each chamber are calibrated prior to testing by injecting exactly 1 ml of air through the injection port and adjusting the computer signal accordingly. Mice are placed in the WBP chambers and allowed to acclimate for 10 minutes prior to testing. Testing is conducted by letting the animals move and breathe freely for 15 minutes while the following parameters are measured: Tidal Volume (ml), Respiratory Rate (breaths per minutes), Minute Volume (tidal volume multiplied by respiratory rate, ml/min), Inspiratory Time (sec), Expiratory Time (sec), Peak Inspiratory Flow (ml/sec), and Peak Expiratory Flow (ml/sec). Raw data for each of the parameters listed above are captured in the software database and averaged once per minute to give a total of 15 data points per parameter. The average of the 15 data points is reported. Accumulated Volume (ml) is a cumulative value (not averaged) and represents the sum of all tidal volumes for the 15-minute test session. The protocol is customized to include measurements before, during, and after a spasmogen challenge to determine Penh. Dose-response effects of a particular spasmogen (i.e. methacholine (MCh), acetylcholine, etc.) are obtained by giving nebulized aerosol (30-60 sec exposure) at approximately 5-10 min intervals. Mice (balb/c) are treated with vehicle (2% DMSO in H2O) or drug dissolved in 4 ml vehicle for 20 minutes by aerosol, as described above, prior to spasmogen challenge. Penh is determined at 5, 30 and 60 minutes post-challenge. Data are reported as percent inhibition of Penh relative to vehicle.

The target in data set [4] is Ac-His-Ala-Asp-Ala-MeVal-Phe-Thr-Glu-Asn-Tyr-Thr-Lys-Leu-Arg-Lys-Gln-Nle-Ala-Ala-Lys-Lys-Tyr-Leu-Asn-Asp-Leu-Lys-Lys-Gly-Gly-Thr-NH2 (Artificial Sequence). The conditions noted are these: scale: relative to the halftime of the reference standard.
The target in data set [5] is Ac-His-Ser-Asp-Ala-MeVal-Phe-Thr-Glu-Asn-Tyr-Thr-Lys-Leu-Arg-Lys-Arg-Nle-Ala-Ala-Lys-Lys-Tyr-Leu-Asn-Asp-Leu-Lys-Lys-Gly-Gly-Thr-NH2 (Artificial Sequence). The conditions noted are these: scale: relative to the halftime of the reference standard.
The target in data set [6] is Ac-His-Ser-Asp-Ala-MeVal-Phe-Thr-Glu-Asn-Tyr-thr-Lys-Leu-Arg-Lys-Gln-Nle-Ala-Ala-Lys-Lys-Tyr-Leu-Asn-Asp-Leu-Leu-Lys-Gly-Gly-Thr-NH2 (Artificial Sequence). The conditions noted are these: scale: relative to the halftime of the reference standard.
Data set [7] concerns the target Ac-His-Ala-Asp-Ala-MeVal-Phe-Thr-Glu-Asn-Tyr-Thr-Lys-Leu-Arg-Lys-Gln-Nle-Ala-Ala-Lys-Lys-Tyr-Leu-Asn-Asp-Leu-Leu-Lys-Gly-Gly-Thr-NH2 (Artificial Sequence). The conditions noted are these: scale: relative to the halftime of the reference standard.

Take `CCCC[C@H](NC(=O)[C@H](CCC(N)=O)NC(=O)[C@H](CCCCN)NC(=O)[C@H](CCCNC(=N)N)NC(=O)[C@H](CC(C)C)NC(=O)[C@H](CCCCN)NC(=O)[C@@H](NC(=O)[C@H](Cc1ccc(O)cc1)NC(=O)[C@H](CC(N)=O)NC(=O)[C@H](CCC(=O)O)NC(=O)[C@@H](NC(=O)[C@H](Cc1ccccc1)NC(=O)[C@@](C)(NC(=O)[C@H](C)NC(=O)[C@H](CC(=O)O)NC(=O)[C@H](CO)NC(=O)[C@H](Cc1c[nH]cn1)NC(C)=O)C(C)C)C(C)O)C(C)O)C(=O)N[C@@H](C)C(=O)N[C@@H](C)C(=O)N[C@@H](CCCCN)C(=O)N[C@H]1CCCCNC(=O)C[C@@H](C(=O)N[C@@H](CC(C)C)C(=O)N[C@@H](CCCCN)C(=O)N[C@@H](CCCCN)C(=O)NCC(=O)NCC(=O)N[C@H](C(N)=O)C(C)O)NC(=O)[C@H](CC(N)=O)NC(=O)[C@H](CC(C)C)NC(=O)[C@H](Cc2ccc(O)cc2)NC1=O` (stereo partly shown) [Example 6] (Ac-HSDA[αMeV]F[Thr(3ξ)]ENY[Thr(3ξ)]KLRKQ[Nle]AAKKYLNDLKKGG[Thr(3ξ)]-NH2; lactam 21-25): the Relative elastase stability in data set [1] came to 6. The concentration for a half-maximal effect (EC50) on VPAC2 receptor amounted to 2.35 nM. Further, the “Inhibition of LPS-induced neutrophilia” value in data set [2] was “++ (++ >30%)”. Moreover, the “Inhibition of Penh at 5 minutes post-challenge” value (shortened to “Inhibition of Penh”) in data set [3] is “++ (++ <50%)”.

`CCCC[C@H](NC(=O)[C@H](CCC(N)=O)NC(=O)[C@H](CCCCN)NC(=O)[C@H](CCCNC(=N)N)NC(=O)[C@H](CC(C)C)NC(=O)[C@H](CCCCN)NC(=O)[C@@H](NC(=O)[C@H](Cc1ccc(O)cc1)NC(=O)[C@H](CC(N)=O)NC(=O)[C@H](CCC(=O)O)NC(=O)[C@@H](NC(=O)[C@H](Cc1ccccc1)NC(=O)[C@H](CO)NC(=O)[C@H](C)NC(=O)[C@H](CC(=O)O)NC(=O)[C@H](C)NC(=O)[C@H](Cc1c[nH]cn1)NC(C)=O)C(C)O)C(C)O)C(=O)N[C@@H](C)C(=O)N[C@@H](C)C(=O)N[C@@H](CCCCN)C(=O)N[C@H]1CCCCNC(=O)C[C@@H](C(=O)N[C@@H](CC(C)C)C(=O)N[C@@H](CCCCN)C(=O)N[C@@H](CCCCN)C(=O)NCC(=O)NCC(=O)N[C@H](C(N)=O)C(C)O)NC(=O)[C@H](CC(N)=O)NC(=O)[C@H](CC(C)C)NC(=O)[C@H](Cc2ccc(O)cc2)NC1=O` (stereo partly shown) [Example 12] (Ac-HADASF[Thr(3ξ)]ENY[Thr(3ξ)]KLRKQ[Nle]AAKKYLNDLKKGG[Thr(3ξ)]-NH2; lactam 21-25) returned a Relative elastase stability in data set [1] of 5.2. The EC50 on VPAC2 receptor came out at 7.4 nM. Moreover, the “Inhibition of LPS-induced neutrophilia” value in data set [2] is recorded as “+ (+ 10-30%)”. Moreover, in data set [3], the “Inhibition of Penh” value is given as “+ (+ >50%)”.

In turn, `CCCC[C@H](NC(=O)[C@H](CCCNC(=N)N)NC(=O)[C@H](CCCCN)NC(=O)[C@H](CCCNC(=N)N)NC(=O)[C@H](CC(C)C)NC(=O)[C@H](CCCCN)NC(=O)[C@@H](NC(=O)[C@H](Cc1ccc(O)cc1)NC(=O)[C@H](CC(N)=O)NC(=O)[C@H](CCC(=O)O)NC(=O)[C@@H](NC(=O)[C@H](Cc1ccccc1)NC(=O)[C@H](CO)NC(=O)[C@H](C)NC(=O)[C@H](CC(=O)O)NC(=O)[C@H](CO)NC(=O)[C@H](Cc1c[nH]cn1)NC(C)=O)C(C)O)C(C)O)C(=O)N[C@@H](CCC(=O)O)C(=O)N[C@@H](C)C(=O)N[C@@H](CCCCN)C(=O)N[C@H]1CCCCNC(=O)C[C@@H](C(=O)N[C@@H](CC(C)C)C(=O)N[C@@H](CC(C)C)C(=O)N[C@@H](CCCCN)C(=O)NCC(=O)NCC(=O)N[C@H](C(N)=O)C(C)O)NC(=O)[C@H](CC(N)=O)NC(=O)[C@H](CC(C)C)NC(=O)[C@H](Cc2ccc(O)cc2)NC1=O` (stereo partly shown) [Example 19] (Ac-HSDASF[Thr(3ξ)]ENY[Thr(3ξ)]KLRKR[Nle]EAKKYLNDLLKGG[Thr(3ξ)]-NH2; lactam 21-25) yielded a Relative elastase stability in data set [1] of 3.3. Further, at VPAC2 receptor, the EC50 is 68.4 nM. The “Inhibition of LPS-induced neutrophilia” value in data set [2] is “+ (+ 10-30%)”. In addition, the “Inhibition of Penh” value in data set [3] is recorded as “+ (+ >50%)”.

For the compound “Elastase (Human Neutrophil, Calbiochem, Cat # 324681) (from UniProt P08246) (enzyme)”, the Relative elastase stability was found to be 5.7 in data set [4], 1.8 in data set [5], 3.4 in data set [6] and 3.6 in data set [7].
